Assay results from ChEMBL document CHEMBL1132459, “Design of MKC-442 (emivirine) analogues with improved activity against drug-resistant HIV mutants” (J Med Chem, 1999).

Experiments:
Details in all cases: Homo sapiens
HeLa [1] = experiment: Compound was tested for its inhibition of HIV-1 induced focus formation in MAGI-CCR5 cells in strains like IIIB; type: functional, cell-based
HeLa [2] = experiment: Compound was tested for its inhibition of HIV-1 induced focus formation in MAGI-CCR5 cells in strains like NL4-3; type: functional, cell-based
HeLa [3] = experiment: Compound was tested for its inhibition of HIV-1 induced focus formation in MAGI-CCR5 cells in strains like NL4-3K103N; type: functional, cell-based
HeLa [4] = experiment: Compound was tested for its cytotoxicity depending on the viability of mock-infected cells; type: functional
HeLa [5] = experiment: Compound was tested for its inhibition of HIV-1 induced focus formation in MAGI-CCR5 cells in strains like IIIB-R(Y181C); type: functional, cell-based

Row | Structure (SMILES) | EC50 (HeLa [1]) [nM] | EC50 (HeLa [2]) [nM] | EC50 (HeLa [3]) [nM] | CC50 (HeLa [4]) [nM] | EC50 (HeLa [5]) [nM]
1 | CCOCn1c(SC2CCCCC2)c(C(C)C)c(=O)[nH]c1=O | 3 | 3 | 250 | 74800 | 270
2 | CCOCn1c(Cc2cc(C)cc(C)c2)c(C(C)C)c(=O)[nH]c1=O | 1 | 1 | 40 | 52500 | 180
3 | CCOCn1c(Cc2ccccc2)c(C(C)C)c(=O)[nH]c1=O [EMIVIRINE] | 4 | 1 | 1260 | > 100000 | 13400
